Measured values: US5382586A, “Aryl (or heteroaryl)piperazinylalkylazole derivatives, their preparation and their application as medicaments” (priority 1991, dated 1995)

Key:
[1] = tested on: mice, abstinence syndrome induced by cocaine, diazepam, alcohol or nicotine; experiment: light box/dark box test: inhibition of the abstinence syndrome; assay type: in vivo, mouse; parameters: Time in box, dark (D) / Latent period L-D: unit not given here
Method: The light box/dark box test described by B. Costall et al. (J. Phar. Pharmacol., 1988, 40: 494-500) is used. The mouse is placed in the light zone of a box divided into two compartments, one brightly illuminated, the light box, and the other with little illumination, the dark box.
1) The number of times the mouse stands up on the hind paws in each compartment during a 5 minute period is counted (see Column 1 of Table V).
2) The activity in each compartment is given by counting the number of crossings through the squares which form the divisions of each compartment (see Column 2 of Table V).
3) The time passed in the dark box during the 5 minute counting period is determined (see Column 3 of Table 5).
4) The initial latent period is determined, that is to say the time which elapses after the animal is placed in the light box, at the start of the test, before it enters the dark box (see Column 4 of Table 5).
1) Dependency on a given treatment (diazepam, cocaine, alcohol or nicotine) employing daily administration over a period of 7 or 14 days.
Diazepam: 10 mg/kg i.p. twice per day over a period of 7 days.
Cocaine: 1 mg/kg i.p. over a period of 14 days.
Alcohol: Administered at 8% weight/volume in the drinking water over a period of 14 days. Nicotine: 0.1 mg/kg i.p. twice per day over a period of 7 days.
3) Other different groups receive, in addition to diazepam, cocaine, alcohol or nicotine, a concomitant treatment with products which are the subject of the present invention and, by way of comparison, with buspirone or ipsapirone.
The product described and the doses tested were: 4,5-dichloro-2-methyl-1-{4-[4-(2-pyrimidinyl)-1-piperazinyl]-butyl}-1H-imidazole citrate.
1 μg/kg p.o. twice per day.

[2] = tested on: conditioned avoidance response in male Wistar rats; experiment: conditioned avoidance response test (inhibition of the conditioned avoidance response; anxiolytic/tranquillising activity); assay type: in vivo, rat (male Wistar); settings: rat; for Activity % (inhibition of the conditioned avoidance response): D = 80 mg/kg, p.o., 45 min before test; for ED50: po, 0.75 h
Method: Male Wistar rats weighing 200 grammes which have been trained to jump over a barrier in an avoidance and escape cage (shuttle box) (Letica, reference LI 910 and LI 2700) within 30 seconds of their being introduced into the cage are used in this test.
The products having an anxiolytic or tranquillising activity suppress the conditioned avoidance response.
Training: day one: 11 trials at 3 minute intervals. Electric shock to the paws after 30 seconds (5 mA, 0.1 s, 10 s).
Days two and three: 2 trials per day, with the selected rats only [sum of the scores for the first day (with the exception of the first trial)>14].
Test day: groups formed by selected rats. Oral administration of the product or the vehicle 45 minutes before the start of the study.

[3] = tested on: norepinephrine-induced death in rats; experiment: norepinephrine antagonism test in rats (antihypertensive activity); assay type: in vivo, rat (male Wister); settings: for Activity % (norepinephrine antagonistic antihypertensive activity): D = 40 mg/kg, i.p., rat, norepinephrine 1.25 mg/kg i.v. after 2 hours; for ED50: Rattus norvegicus, ip, 2 h, read-out: ED50 (norepinephrine antagonistic antihypertensive activity)
Method: This activity is manifested by the protection of animals before death induced by an intravenous injection of norepinephrine, which produces a hypertensive attack in rats.
Male Wister rats weighing 200 grammes are used in this test. The product to be studied is administered intraperitoneally and 1.25 mg/kg (i.v.) of norepinephrine are administered after 2 hours.
The initial administration dose in these studies is 40 mg/kg (i.p.).

[4] = 24 h after stopping alcohol (alone, or with the named product; Ex. 42 at 1 μg/kg p.o. twice per day)
[5] = during long-term treatment with the agent (doses as E20)
[6] = during long-term treatment with the agent (doses as E20), 5 minute counting period
[7] = during long-term treatment with the agent (doses as E20), number of crossings
[8] = 24 h after stopping cocaine (alone, or with the named product; Ex. 42 at 1 μg/kg p.o. twice per day)
[9] = 24 h after stopping diazepam (alone, or with the named product; Ex. 42 at 1 μg/kg p.o. twice per day)
[10] = 24 h after stopping nicotine (alone, or with the named product; Ex. 42 at 1 μg/kg p.o. twice per day)
[11] = during long-term treatment: cocaine 1 mg/kg i.p. 14 days, diazepam 10 mg/kg i.p. twice per day 7 days, alcohol 8% w/v drinking water 14 days, nicotine 0.1 mg/kg i.p. twice per day 7 days

CCO [Alcohol]
Activity within 5 min period, dark box (D) [1, 4]: 167
Activity within 5 min period, light box (L) [1, 4]: 6
Latent period L-D [1, 4]: 2
Time in box, dark (D) [1, 4]: 84
Latent period L-D [1, 5]: 28
Time in box, dark (D) [1, 6]: 28
Activity within 5 min period, dark box (D) [1, 7]: 28
Activity within 5 min period, light box (L) [1, 7]: 80
Number of times standing erect within 5 min. period, dark box (D) ([1]; mouse, in vivo): 22
Number of times standing erect within 5 min. period, light box (L) ([1]; mouse, in vivo): 72
Number of times standing erect within 5 min. period, dark box (D) ([1]; mouse, in vivo, po): 147
Number of times standing erect within 5 min. period, light box (L) ([1]; mouse, in vivo, po): 5

O=C1CC2(CCCC2)CC(=O)N1CCCCN1CCN(c2ncccn2)CC1 [Buspirone]
Activity within 5 min period, dark box (D) [1, 4]: 75
Activity within 5 min period, light box (L) [1, 4]: 15
Latent period L-D [1, 4]: 7
Number of times standing erect within 5 min. period, dark box (D) [1, 4]: 80
Number of times standing erect within 5 min. period, light box (L) [1, 4]: 18
Time in box, dark (D) [1, 4]: 62
Activity within 5 min period, dark box (D) [1, 8]: 90
Activity within 5 min period, light box (L) [1, 8]: 18
Latent period L-D [1, 8]: 2
Number of times standing erect within 5 min. period, dark box (D) [1, 8]: 98
Number of times standing erect within 5 min. period, light box (L) [1, 8]: 10
Time in box, dark (D) [1, 8]: 70
Activity within 5 min period, dark box (D) [1, 9]: 100
Activity within 5 min period, light box (L) [1, 9]: 12
Latent period L-D [1, 9]: 2
Number of times standing erect within 5 min. period, dark box (D) [1, 9]: 88
Number of times standing erect within 5 min. period, light box (L) [1, 9]: 9
Time in box, dark (D) [1, 9]: 72
Activity within 5 min period, dark box (D) [1, 10]: 85
Activity within 5 min period, light box (L) [1, 10]: 20
Latent period L-D [1, 10]: 8
Number of times standing erect within 5 min. period, dark box (D) [1, 10]: 80
Number of times standing erect within 5 min. period, light box (L) [1, 10]: 12
Time in box, dark (D) [1, 10]: 65
abstinence syndrome ([1]; induced by diazepam and cocaine): maintains the abstinence syndrome
abstinence syndrome ([1]; treatment with alcohol and nicotine stopped): an abstinence syndrome, i.e. anxiogenesis, no longer exists
inhibition of anxiogenic response parameters ([1]; treatment with alcohol stopped): significantly inhibits only a few anxiogenic response parameters
Activity % (inhibition of the conditioned avoidance response) [2]: 99%

Clc1cccc(Cl)c1N=C1NCCN1 [Clonidine, reference compound]
Activity % (norepinephrine antagonistic antihypertensive activity) [3]: 100%
ED50 [3]: 1.58 mg/kg

COC(=O)[C@H]1[C@@H](OC(=O)c2ccccc2)C[C@@H]2CC[C@H]1N2C [Cocaine]
Activity within 5 min period, dark box (D) [1, 8]: 149
Activity within 5 min period, light box (L) [1, 8]: 10
Latent period L-D [1, 8]: 2
Number of times standing erect within 5 min. period, dark box (D) [1, 8]: 122
Number of times standing erect within 5 min. period, light box (L) [1, 8]: 7
Time in box, dark (D) [1, 8]: 83
Latent period L-D [1, 5]: 18
Number of times standing erect within 5 min. period, dark box (D) [1, 5]: 38
Time in box, dark (D) [1, 6]: 30
Activity within 5 min period, dark box (D) [1, 7]: 30
Activity within 5 min period, light box (L) [1, 7]: 68
Number of times standing erect within 5 min. period, light box (L) [1, 11]: 60

CN1C(=O)CN=C(c2ccccc2)c2cc(Cl)ccc21 [Diazepam]
Activity within 5 min period, dark box (D) [1, 9]: 164
Activity within 5 min period, light box (L) [1, 9]: 5
Latent period L-D [1, 9]: 1.8
Number of times standing erect within 5 min. period, dark box (D) [1, 9]: 146
Number of times standing erect within 5 min. period, light box (L) [1, 9]: 5
Time in box, dark (D) [1, 9]: 80
Latent period L-D [1, 5]: 27
Number of times standing erect within 5 min. period, dark box (D) [1, 5]: 25
Time in box, dark (D) [1, 6]: 25
Activity within 5 min period, dark box (D) [1, 7]: 24
Activity within 5 min period, light box (L) [1, 7]: 73
Number of times standing erect within 5 min. period, light box (L) [1, 11]: 70

c1cnc(N2CCN(CCCCn3cccc3)CC2)nc1 [Example 1, 1-{4-[4-(2-pyrimidinyl)-1-piperazinyl]-butyl}pyrrole]
Activity % (norepinephrine antagonistic antihypertensive activity) [3]: 0%
Activity % (inhibition of the conditioned avoidance response) [2]: 94%
ED50 [2]: 32.4 mg/kg

c1cnc(N2CCN(CCCCn3c4ccccc4c4ccccc43)CC2)nc1 [Example 2]
Activity % (norepinephrine antagonistic antihypertensive activity) [3]: 0%
Activity % (inhibition of the conditioned avoidance response) [2]: 37%

c1cnc(N2CCN(CCCCn3ccc4ccccc43)CC2)nc1 [Example 3]
Activity % (norepinephrine antagonistic antihypertensive activity) [3]: 25%
Activity % (inhibition of the conditioned avoidance response) [2]: 74%
ED50 [2]: 42.8 mg/kg

c1ccc(-c2c(-c3ccccc3)n(CCCCN3CCN(c4ncccn4)CC3)c3ccccc23)cc1 [Example 4]
Activity % (norepinephrine antagonistic antihypertensive activity) [3]: 0%
Activity % (inhibition of the conditioned avoidance response) [2]: 30%

NC(=O)c1cnn(CCCCN2CCN(c3ncccn3)CC2)c1 [Example 5, 4-carboxamido-1-{4-[4-(2-pyrimidinyl)-1-piperazinyl]-butyl}-1H-pyrazole]
Activity % (norepinephrine antagonistic antihypertensive activity) [3]: 0%
Activity % (inhibition of the conditioned avoidance response) [2]: 68%
ED50 [2]: 33.5 mg/kg

O=C(O)c1cnn(CCCCN2CCN(c3ncccn3)CC2)c1 [Example 6, 4-carboxy-1-{4-[4-(2-pyrimidinyl)-1-piperazinyl]-butyl}-1H-pyrazole]
Activity % (norepinephrine antagonistic antihypertensive activity) [3]: 75%
ED50 [3]: 31.7 mg/kg
Activity % (inhibition of the conditioned avoidance response) [2]: 57%
ED50 [2]: 44.3 mg/kg

Cc1cc(C(F)(F)F)n(CCCCN2CCN(c3ncccn3)CC2)n1 [Example 7]
Activity % (norepinephrine antagonistic antihypertensive activity) [3]: 0%
Activity % (inhibition of the conditioned avoidance response) [2]: 74%
ED50 [2]: 29 mg/kg

c1ccc(-c2ncn(CCCCN3CCN(c4ncccn4)CC3)c2-c2ccccc2)cc1 [Example 8]
Activity % (norepinephrine antagonistic antihypertensive activity) [3]: 0%
Activity % (inhibition of the conditioned avoidance response) [2]: 29%

c1ccc(-c2nc(-c3ccccc3)n(CCCCN3CCN(c4ncccn4)CC3)c2-c2ccccc2)cc1 [Example 9]
Activity % (norepinephrine antagonistic antihypertensive activity) [3]: 0%
Activity % (inhibition of the conditioned avoidance response) [2]: 8%

O=C1c2ccccc2S(=O)(=O)N1CCCCN1CCN(c2ncccn2)CC1 [Ipsapirone]
Activity within 5 min period, dark box (D) [1, 4]: 80
Activity within 5 min period, light box (L) [1, 4]: 36
Latent period L-D [1, 4]: 10
Number of times standing erect within 5 min. period, dark box (D) [1, 4]: 75
Number of times standing erect within 5 min. period, light box (L) [1, 4]: 21
Time in box, dark (D) [1, 4]: 35
Activity within 5 min period, dark box (D) [1, 8]: 85
Activity within 5 min period, light box (L) [1, 8]: 18
Latent period L-D [1, 8]: 8
Number of times standing erect within 5 min. period, dark box (D) [1, 8]: 89
Number of times standing erect within 5 min. period, light box (L) [1, 8]: 11
Time in box, dark (D) [1, 8]: 62
Activity within 5 min period, dark box (D) [1, 9]: 88
Activity within 5 min period, light box (L) [1, 9]: 17
Latent period L-D [1, 9]: 8
Number of times standing erect within 5 min. period, dark box (D) [1, 9]: 82
Number of times standing erect within 5 min. period, light box (L) [1, 9]: 15
Time in box, dark (D) [1, 9]: 90
Activity within 5 min period, dark box (D) [1, 10]: 98
Activity within 5 min period, light box (L) [1, 10]: 18
Latent period L-D [1, 10]: 3
Number of times standing erect within 5 min. period, dark box (D) [1, 10]: 84
Number of times standing erect within 5 min. period, light box (L) [1, 10]: 9
Time in box, dark (D) [1, 10]: 70
abstinence syndrome ([1]; induced by alcohol): inhibits the abstinence syndrome
abstinence syndrome ([1]; induced by diazepam, cocaine and nicotine): maintains the abstinence syndrome
Activity % (inhibition of the conditioned avoidance response) [2]: 98%

CN1CCC[C@H]1c1cccnc1 [Nicotine]
Activity within 5 min period, dark box (D) ([1]; mouse, in vivo): 25
Activity within 5 min period, light box (L) ([1]; mouse, in vivo): 70
Latent period L-D ([1]; mouse, in vivo): 26
Number of times standing erect within 5 min. period, dark box (D) ([1]; mouse, in vivo): 23
Number of times standing erect within 5 min. period, light box (L) ([1]; mouse, in vivo): 66
Time in box, dark (D) ([1]; mouse, in vivo): 25
Activity within 5 min period, dark box (D) ([1]; mouse, in vivo, po): 147
Activity within 5 min period, light box (L) ([1]; mouse, in vivo, po): 14
Latent period L-D ([1]; mouse, in vivo, po): 2
Number of times standing erect within 5 min. period, dark box (D) ([1]; mouse, in vivo, po): 125
Number of times standing erect within 5 min. period, light box (L) ([1]; mouse, in vivo, po): 10
Time in box, dark (D) ([1]; mouse, in vivo, po): 78

c1ccc(CC2=NCCN2)cc1 [Tolazoline, reference compound]
Activity % (norepinephrine antagonistic antihypertensive activity) [3]: 100%
ED50 [3]: 2.97 mg/kg
